The text below walks through data of patent US20100210708A1, “COMPOUND PROFILING METHOD” (CYTOPATHFINDER, INC., priority 2007, published 2010).

One assay deals with SHSY5Y cell. In words: Exposure of SHSY5Y neuroblastoma cells to stimulants: marker enzyme expression and extension of neuron projection. The format is cell-based. The note with it: a neuroblastoma from human. The source says:
The functions of (1) and (2) are different, but share the same properties in terms of extension of neuron projection. Therefore, cellular components necessary for these two intracellular alteration were specified experimentally by means of RNA interference method. As such, it was obtained that the component collection (3) necessary for the alteration from SHSY5Y to (1) are {JAK1, JAK3, ROR, and RET}. On the other hand, the component collection (4) necessary for the alteration from SHSY5Y cells to (2), are {NTRK1, EPHB2, INSR, RDGFRA, ROR and RET}. When comparing and calculation of intersection is done for (3) and (4), the intersection (5) was obtained to read {ROR and RET}. Next, the collection (6) {JAK1 and JAK3} by subtraction of (3)-(5) and the collection (5) were analyzed in terms of an intermolecular interaction, and the existence of a pathway of a molecular signals from (6) to (5) (FIG. 3A) was determined. Furthermore, the collection (7) which was obtained by the subtraction of (4)-(5), and the collection (5) were analyzed in terms of an intermolecular interaction, and the existence of a pathway of molecular signals from (7) to (5) (FIG. 3B) was further determined. The common components and pathway relating to the projection extension by retinoic acid (RA) and Nerve Growth Factor (NGF) are shown in FIG. 4.

The next assay deals with SK-BR-3. The note with it: breast cancer cell SK-BR-3; stated as known; cited from earlier work.
A further assay concerns MCF7. The settings on record: breast cancer cells MCF7; cited from earlier work.
The subject of another assay is T-47D cell. The settings on record: human derived breast cancer, compared with SK-BR-3; cited from earlier work.

With “Nerve Growth Factor: Nerve Growth Factor (NGF), stimulant triggering neurite outgrowth in SHSY5Y cells”, in the assay with SHSY5Y cell, the “expression of tyrosine hydroxylase” value was “tyrosine hydroxylase was expressed”, the “extension of neuron projection” value is given as “caused extension of neuron projection” and the “neuron cell type formed” value is on record as “forms dopaminergic neuron cells”.
In the case of `COc1cccc2c1C(=O)c1c(O)c3c(c(O)c1C2=O)C[C@@](O)(C(=O)CO)C[C@@H]3O[C@H]1C[C@H](N)[C@H](O)[C@H](C)O1` [doxorubicin], the growth inhibition entry in the assay on SK-BR-3 is “subjected to growth inhibition”. Moreover, the DXR resistance entry with MCF7 was “having DXR resistance”. For the same compound, the DXR sensitivity entry in the assay on T-47D cell was “same DXR sensitivity as the SK-BR-3”.
